# Data from patent US12433861B2, “Compositions and methods for treating reperfusion injury or hemorrhage after recanalization therapy” (GNT Pharma Co., Ltd., priority 2020, dated 2025).
# Entries after “also recorded” stand apart in the source; their conditions may differ.
# How the values were obtained:
# [1] = tested on: mice treated with rt-PA after embolic stroke; assay: Embolic stroke in mice treated with rt-PA: hemorrhage and brain injury at 24 h; format: in vivo; settings: 10 mg/kg rt-PA plus nelonemdazK IV at 4.5 hours after embolic stroke, analyzed at 24 hours
# Description: Embolic stroke was induced by injection of blood clot into the right internal carotid artery of mice. Animals received intravenous administration of saline, 10 mg/kg rt-PA, or 10 mg/kg rt-PA plus nelonemdazK through femoral vein at 4.5 hours after embolic stroke. rt-PA was dissolved in water and injected over 20 min. NelonemdazK was dissolved in saline and injected over 5 min immediately after rt-PA infusion. Hemorrhage and brain injury were analyzed 24 hours after embolic stroke.
# [2] = tested on: acute ischemic stroke patients; assay: ENIS phase II trial: acute ischemic stroke patients receiving a thrombolytic drug; format: in vivo, human; settings: for good recovery ratio (patients with NIHSS score of 0-1 or decrease of NIHSS score≥4): 14 days; for ratio of mRS 0 (no symptoms at all): 6,000 mg
# Description: The ENIS trial was to examine efficacy as well as safety of the intravenous infusions of nelonemdazK for acute ischemic stroke patients (35-80 years old) receiving at least one kind of thrombolytic drugs including rtPA or urokinase within 8 hours of onset. A total of 238 patients were enrolled for the ENIS trial and allocated randomly in a double-blinded manner to one of 4 groups for the intravenous infusions of test drugs as follows: (Group A) placebo [0.9% normal saline], (Group B) 2,750 mg nelonemdazK for 5 days [500 mg for 1st infusion followed by 2nd-10th infusions approximately at 12 h intervals (250 mg for each infusion)], (Group C) 5,250 mg nelonemdazK for 5 days [750 mg for 1st infusion followed by 2nd-10th infusions approximately at 12 h intervals (500 mg for each)], and (Group D) 6,000 mg nelonemdazK for 5 days [1500 mg for 1st infusion followed by 2nd-10th infusions approximately at 12 h intervals (500 mg for each)]. Acute ischemic stroke patients due to occlusion in internal carotid artery system within 8 hours of onset were enrolled. Patients with The National Institutes of Health Stroke Scale (NIHSS; range 0-42, with higher scores indicating greater stroke severity) scores of 4 to 22 and limb weakness including motor arm or motor leg score≥2 of NIHSS were included. All the patients received at least one kind of thrombolytic therapy before treatment of any study drug.
# The beneficial effects of nelonemdazK were further observed by analyzing “the ratio of patients with NIHSS score of 0-1 or decrease of NIHSS score≥4 (=the good recovery ratio)” at 14 days after drug treatment. […] This implies that the beneficial effects of nelonemdazK are better for moderate to severe ([…]) ischemic stroke patients than mild (NIHSS score≤5) patients.
# [3] = tested on: acute ischemic stroke patients; assay: SONIC phase II trial: acute ischemic stroke patients receiving endovascular thrombectomy with or without rt-PA; format: in vivo, human; settings: for ratio of mRS 0-2 or 0: vs placebo, potassium salt
# Description: The SONIC trial was to examine efficacy and safety of the intravenous infusions of nelonemdazK for acute ischemic stroke patients (adults≥19) receiving endovascular thrombectomy with or without rt-PA within 8 hours of onset as described (Hong et al., 2018). A total of 209 patients were enrolled for the SONIC trial and allocated randomly in a double-blinded manner to one of 3 groups for the intravenous infusions of test drugs as follows: (Group A) placebo [0.9% normal saline], (Group B) 2,750 mg nelonemdazK for 5 days [500 mg for 1st infusion followed by 2nd-10th infusions approximately at 12 h intervals (250 mg for each infusion)], and (Group C) 5,250 mg nelonemdazK for 5 days [750 mg for 1st infusion followed by 2nd-10th infusions approximately at 12 h intervals (500 mg for each)].
# Acute ischemic stroke patients due to occlusion in carotid internal carotid artery system within 8 hours of onset were enrolled. Enrolled patients presented the National Institutes of Health Stroke Scale (NIHSS: range 0-42, with higher scores indicating greater stroke severity) scores and Alberta stroke program early CT score (ASPECTS: a 10-point quantitative topographic CT scan score used in patients with middle cerebral artery (MCA) stroke, with lower scores indicating larger cerebral infarction)≥6.
# For statistical analysis, Cochran-Mantel-Haenszel (CMH) chi-square test was conducted to compare distribution and ratio of mRS scores for each group at 1, 4, and 12 weeks after drug treatment. Ordinal logistic regression was applied with multivariate analysis controlling confounding variables that may cause difference between the groups in participating institutions and baseline scores. In addition, generalized estimating equation (GEE) analysis was conducted to compare the changes between groups in mRS scores measured at 1, 4, and 12 weeks after drug treatment. For the analysis of the Barthel Index score and adverse events, chi-square test or Fisher exact test was conducted to compare difference between groups at 1, 4, and 12 weeks after drug treatment.
# Acute ischemic stroke patients who presented the baseline NIHSS score≥8 and the mRS distribution of 2-5 were enrolled for the SONIC trial. Out of a total of 209 patients, 152 patients successfully completed procedures including drug treatment for 5 days and scheduled analysis over 12 weeks after drug treatment according to the clinical protocol approved by Korea Ministry of Food and Drug Safety. […] The shift analysis implies that administration of nelonemdazK reduces disability in acute stroke patients treated with endovascular thrombectomy.
# [4] = tested on: adult rats; settings: rat, in vivo, iv, 200 mg/kg
compound,measurement,setting,value
"O=C([O-])c1cc(NCc2c(F)c(F)c(C(F)(F)F)c(F)c2F)ccc1O.[K+] [nelonemdazK, 2-Hydroxy-5-(2,3,5,6-tetrafluoro-4-trifluoromethylbenzylamino)benzoic acid potassium salt]",levels of hemoglobin in the ischemic brain region,[1],significantly reduced
same,hemorrhage / hemorrhagic transformation in the ischemic brain region,"[1]; potassium salt, 10 mg/kg",significantly reduced; also recorded: prevents hemorrhagic transformation
same,percentage of mRS 0-2 (functional independence),"[2]; 6,000 mg for 5 days, 14, 30, and 90 days, baseline NIHSS 6-24, vs placebo, potassium salt",increases
same,good recovery ratio (patients with NIHSS score of 0-1 or decrease of NIHSS score≥4),"[2]; 6,000 mg (N=9), baseline NIHSS 9-24 (placebo 20%, p=0.022)",50%
same,good recovery ratio (patients with NIHSS score of 0-1 or decrease of NIHSS score≥4),"[2]; 6,000 mg (N=36), baseline NIHSS 6-24 (placebo 25.53%, p=0.106)",41.67%
same,ratio of mRS 0 (no symptoms at all),"[2]; at 14 days, baseline NIHSS 6-24 (placebo 12%)",25%
same,ratio of mRS 0 (no symptoms at all),"[2]; at 30 days, baseline NIHSS 6-24 (placebo 16%)",34%
same,ratio of mRS 0 (no symptoms at all),"[2]; at 90 days, baseline NIHSS 6-24 (placebo 26%)",45%
same,ratio of mRS 0,"[3]; 1 week, high dose (5,250 mg) (placebo 2.04%, p=0.01)",16.67%
same,ratio of mRS 0,"[3]; 1 week, low dose (2,750 mg) (placebo 2.04%, p=0.04)",12.96%
same,ratio of mRS 0,"[3]; 4 weeks, high dose (5,250 mg) (placebo 6.12%, p=0.007)",26.67%
same,ratio of mRS 0,"[3]; 4 weeks, low dose (2,750 mg) (placebo 6.12%, p=0.04)",20%
same,ratio of mRS 0,"[3]; 12 weeks, high dose (5,250 mg) (placebo 8.16%, p=0.004)",31.25%
same,ratio of patients with Barthel Index score higher than 90,"[3]; 12 weeks, high dose (placebo 41.86%, p<0.05)",64.44%
same,ratio of mRS 0,"[3]; 12 weeks, low dose (2,750 mg) (placebo 8.16%, p=0.03)",23.64%
same,ratio of patients with Barthel Index score higher than 90,"[3]; 12 weeks, low dose (placebo 41.86%)",54.72%
same,drug-related adverse events,"[3]; IV up to 5,250 mg for 5 days, 12 weeks follow-up",no drug-related adverse events
same,ratio of mRS 0-2 or 0,"[3]; high dose (5,250 mg, N=48), over 12 weeks",further increased; also recorded: increases
same,ratio of mRS 0-2 or 0,"[3]; low dose (2,750 mg, N=55), over 12 weeks",further increased; also recorded: increases
same,occurrence of adverse events and serious adverse events vs placebo,[3]; over 12 weeks,no difference
same,mortality rate,"[3]; over 12 weeks, high dose group (N=67) (placebo 8.57%)",4.48%
same,mortality rate,"[3]; over 12 weeks, low dose group (N=71) (placebo 8.57%)",4.23%
same,neuronal injury,[4],not observed
